# Target: T1, Recombinant human liver GK1 (GST-GK) (Homo sapiens, UniProt P35557)
# T1 construct: made in house; host or cells: E. coli
# T1 sequence (P35557 1-466 isoform P35557-2): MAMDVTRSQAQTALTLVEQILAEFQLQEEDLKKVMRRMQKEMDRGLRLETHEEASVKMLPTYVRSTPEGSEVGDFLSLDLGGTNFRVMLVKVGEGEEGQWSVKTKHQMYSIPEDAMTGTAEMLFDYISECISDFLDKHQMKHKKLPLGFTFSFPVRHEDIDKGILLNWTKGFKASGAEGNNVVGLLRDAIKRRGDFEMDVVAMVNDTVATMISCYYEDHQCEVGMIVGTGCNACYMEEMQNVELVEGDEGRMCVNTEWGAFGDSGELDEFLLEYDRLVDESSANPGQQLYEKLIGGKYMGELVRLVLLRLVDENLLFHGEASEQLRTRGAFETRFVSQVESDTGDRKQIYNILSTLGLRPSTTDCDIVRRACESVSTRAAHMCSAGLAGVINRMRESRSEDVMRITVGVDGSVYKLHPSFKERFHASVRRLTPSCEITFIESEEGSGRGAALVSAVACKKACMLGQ
# Assay: Glucokinase in vitro assay (G6PDH-coupled NADH generation, OD340)
# Type: biochemical
# Conditions: 5 mM D-glucose, 30° C., pH 7.1, 10% DMSO
# Method in brief: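 Activation readout is SC1.5, the activator concentration raising GK rate (OD340/min) 50% above 10% DMSO controls. The coupled reaction used GST-GK1 from E. coli, 5 mM glucose, 1 mM ATP, 1.8 mM NAD and 25 mM Hepes pH 7.1 at 30° C. Enzyme was added after a 10 min compound pre-incubation.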
row,SC1.5 average (concentration of activator that produced a 50% increase in the activity of GK) [µM],SMILES
1,18.488,"CC(C)(O)Cn1ccc(NC(=O)[C@@H](CC2CCCC2)n2ncc(Oc3cccc4cnccc34)cc2=O)n1 [Example 37B, (R)-3-Cyclopentyl-N-[1-(2-hydroxy-2-methyl-propyl)-1H-pyrazol-3-yl]-2-[4-(isoquinolin-5-yloxy)-6-oxo-6H-pyridazin-1-yl]-propionamide]"
2,0.237,"COc1ccc(Oc2cnn(C(CC3CCCCC3)C(=O)Nc3ccn(CC(C)(C)O)n3)c(=O)c2)c(Cl)c1 (stereo not drawn) [Example 118, 2-[4-(2-Chloro-4-methoxy-phenoxy)-6-oxo-6H-pyridazin-1-yl]-3-cyclohexyl-N-[1-(2-hydroxy-2-methyl-propyl)-1H-pyrazol-3-yl]-propionamide]"
3,6.893,"CC(C)(O)Cn1ccc(NC(=O)[C@@H](CC2CCCC2)n2ncc(Oc3ccccc3C(F)(F)F)cc2=O)n1 [Example 11B, (R)-3-Cyclopentyl-N-[1-(2-hydroxy-2-methyl-propyl)-1H-pyrazol-3-yl]-2-[6-oxo-4-(2-trifluoromethyl-phenoxy)-6H-pyridazin-1-yl]-propionamide]"
4,0.228,"CC(=O)c1ccccc1Oc1cnn(C(CC2CCCC2)C(=O)Nc2ccn(CC(C)(C)O)n2)c(=O)c1 (stereo not drawn) [Example 40, 2-[4-(2-Acetyl-phenoxy)-6-oxo-6H-pyridazin-1-yl]-3-cyclopentyl-N-[1-(2-hydroxy-2-methyl-propyl)-1H-pyrazol-3-yl]-propionamide]"
5,3.411,"CC(C)(O)Cn1ccc(NC(=O)[C@@H](CC2CCCC2)n2ncc(Oc3ccccc3F)cc2=O)n1 [Example 19B, (R)-3-Cyclopentyl-2-[4-(2-fluoro-phenoxy)-6-oxo-6H-pyridazin-1-yl]-N-[1-(2-hydroxy-2-methyl-propyl)-1H-pyrazol-3-yl]-propionamide]"
6,0.102,"CC(C)(O)Cn1ccc(NC(=O)[C@H](CC2CCCC2)n2ncc(Oc3ccccc3N3CCCC3)cc2=O)n1 [Example 26A, (S)-3-Cyclopentyl-N-[1-(2-hydroxy-2-methyl-propyl)-1H-pyrazol-3-yl]-2-[6-oxo-4-(2-pyrrolidin-1-yl-phenoxy)-6H-pyridazin-1-yl]-propionamide]"
7,0.469,"O=C(Nc1ccn(CCO)n1)C(CC1CCOCC1)n1ncc(Oc2c(F)cccc2F)cc1=O (stereo not drawn) [Example 53, 2-[4-(2,6-Difluoro-phenoxy)-6-oxo-6H-pyridazin-1-yl]-N-[1-(2-hydroxy-ethyl)-1H-pyrazol-3-yl]-3-(tetrahydro-pyran-4-yl)-propionamide]"
8,12.633,"O=C(Nc1ccn(C[C@@H](O)CO)n1)C(CC1CCCC1)n1ncc(Oc2ncccc2F)cc1=O (stereo partly drawn) [Example 95, 3-Cyclopentyl-N-[1-((R)-2,3-dihydroxy-propyl)-1H-pyrazol-3-yl]-2-[4-(3-fluoro-pyridin-2-yloxy)-6-oxo-6H-pyridazin-1-yl]-propionamide]"
9,0.012,"O=C(O)c1ccc(NC(=O)[C@H](CC2CCCC2)n2ncc(Oc3c(F)cccc3F)cc2=O)nc1 [Example 73A, 6-{(S)-3-Cyclopentyl-2-[4-(2,6-difluoro-phenoxy)-6-oxo-6H-pyridazin-1-yl]-propionylamino}-nicotinic acid]"
10,0.521,"O=C(Nc1ccn(C[C@@H](O)CO)n1)C(Cc1c(F)cccc1F)n1ncc(Oc2c(F)cccc2F)cc1=O (stereo partly drawn) [Example 108, 2-[4-(2,6-Difluoro-phenoxy)-6-oxo-6H-pyridazin-1-yl]-3-(2,6-difluoro-phenyl)-N-[1-((R)-2,3-dihydroxy-propyl)-1H-pyrazol-3-yl]-propionamide]"
11,1.17,"CC(C)(O)Cn1ccc(NC(=O)C(CC2CCCCC2)n2ncc(Oc3ccccc3)c(Cl)c2=O)n1 (stereo not drawn) [Example 136, 2-(5-Chloro-6-oxo-4-phenoxy-6H-pyridazin-1-yl)-3-cyclohexyl-N-[1-(2-hydroxy-2-methyl-propyl)-1H-pyrazol-3-yl]-propionamide]"
12,14.436,"CC(C)(O)Cn1ccc(NC(=O)C(CC2CCCC2)n2ncccc2=O)n1 (stereo not drawn) [Example 78, 3-Cyclopentyl-N-[1-(2-hydroxy-2-methyl-propyl)-1H-pyrazol-3-yl]-2-(6-oxo-6H-pyridazin-1-yl)-propionamide]"
13,2.591,"Cn1nc(C(F)(F)F)cc1Oc1cnn(C(CC2CCCC2)C(=O)Nc2ccn(C[C@@H](O)CO)n2)c(=O)c1 (stereo partly drawn) [Example 103, 3-Cyclopentyl-N-[1-((R)-2,3-dihydroxy-propyl)-1H-pyrazol-3-yl]-2-[4-(2-methyl-5-trifluoromethyl-2H-pyrazol-3-yloxy)-6-oxo-6H-pyridazin-1-yl]-propionamide]"
14,0.568,"CC(C)(O)Cn1ccc(NC(=O)C(CC2CCCC2)n2ncc(Oc3cccc4c3OC(C)(C)C4)cc2=O)n1 (stereo not drawn) [Example 89, 3-Cyclopentyl-2-[4-(2,2-dimethyl-2,3-dihydro-benzofuran-7-yloxy)-6-oxo-6H-pyridazin-1-yl]-N-[1-(2-hydroxy-2-methyl-propyl)-1H-pyrazol-3-yl]-propionamide]"
15,0.238,"CC(C)(O)Cn1ccc(NC(=O)[C@H](CC2CCCC2)n2ncc(Oc3cccc4cnccc34)cc2=O)n1 [Example 37A, (S)-3-Cyclopentyl-N-[1-(2-hydroxy-2-methyl-propyl)-1H-pyrazol-3-yl]-2-[4-(isoquinolin-5-yloxy)-6-oxo-6H-pyridazin-1-yl]-propionamide]"
16,6.205,"Cc1nnc(NC(=O)C(CC2CCCC2)n2ncc(Oc3ccccc3)cc2=O)s1 (stereo not drawn) [Example 4, 3-Cyclopentyl-N-(5-methyl-[1,3,4]thiadiazol-2-yl)-2-(6-oxo-4-phenoxy-6H-pyridazin-1-yl)-propionamide]"
17,0.087,"CC(C)(O)Cn1ccc(NC(=O)C(CC2CCCCC2)n2ncc(Oc3c(F)cccc3F)cc2=O)n1 (stereo not drawn) [Example 51, 3-Cyclohexyl-2-[4-(2,6-difluoro-phenoxy)-6-oxo-6H-pyridazin-1-yl]-N-[1-(2-hydroxy-2-methyl-propyl)-1H-pyrazol-3-yl]-propionamide]"
18,11.185,"CC(C)(O)Cn1ccc(NC(=O)[C@@H](CC2CCCC2)n2ncc(Oc3ccccc3C#N)cc2=O)n1 [Example 29B, (R)-2-[4-(2-Cyano-phenoxy)-6-oxo-6H-pyridazin-1-yl]-3-cyclopentyl-N-[1-(2-hydroxy-2-methyl-propyl)-1H-pyrazol-3-yl]-propionamide]"
19,7.536,"CC(C)(O)Cn1ccc(NC(=O)[C@@H](CC2CCOCC2)n2ncc(Oc3c(F)cccc3F)cc2=O)n1 [Example 43B, (R)-2-[4-(2,6-Difluoro-phenoxy)-6-oxo-6H-pyridazin-1-yl]-N-[1-(2-hydroxy-2-methyl-propyl)-1H-pyrazol-3-yl]-3-(tetrahydro-pyran-4-yl)-propionamide]"
20,0.196,"CC(C)(O)Cn1ccc(NC(=O)C(CC2CCCC2)n2ncc(Oc3ccccc3N3CCCC3)cc2=O)n1 (stereo not drawn) [Example 26, 3-Cyclopentyl-N-[1-(2-hydroxy-2-methyl-propyl)-1H-pyrazol-3-yl]-2-[6-oxo-4-(2-pyrrolidin-1-yl-phenoxy)-6H-pyridazin-1-yl]-propionamide]"
21,0.1,"Cc1ccccc1Oc1cnn([C@@H](CC2CCCC2)C(=O)Nc2ccn(CC(C)(C)O)n2)c(=O)c1 [Example 24A, (S)-3-Cyclopentyl-N-[1-(2-hydroxy-2-methyl-propyl)-1H-pyrazol-3-yl]-2-(6-oxo-4-o-tolyloxy-6H-pyridazin-1-yl)-propionamide]"
22,0.707,"CC(C)(O)Cn1ccc(NC(=O)C(CC2CCCC2)n2ncc(Oc3ccccc3)cc2=O)n1 (stereo not drawn) [Example 1, 3-Cyclopentyl-N-[1-(2-hydroxy-2-methyl-propyl)-1H-pyrazol-3-yl]-2-(6-oxo-4-phenoxy-6H-pyridazin-1-yl)-propionamide]"
23,1.006,"CC(C)(O)Cn1ccc(NC(=O)C(CC2CCOCC2)n2ncc(Oc3ccccc3Cl)c(Cl)c2=O)n1 (stereo not drawn) [Example 129, 2-[5-Chloro-4-(2-chloro-phenoxy)-6-oxo-6H-pyridazin-1-yl]-N-[1-(2-hydroxy-2-methyl-propyl)-1H-pyrazol-3-yl]-3-(tetrahydro-pyran-4-yl)-propionamide]"
24,0.072,"O=C(Nc1ccn(C[C@@H](O)CO)n1)C(CC1CCCC1)n1ncc(Oc2c(F)cccc2F)cc1=O (stereo partly drawn) [Example 105, 3-Cyclopentyl-2-[4-(2,6-difluoro-phenoxy)-6-oxo-6H-pyridazin-1-yl]-N-[1-((R)-2,3-dihydroxy-propyl)-1H-pyrazol-3-yl]-propionamide]"
